# Measured values reported in patent US20100267561A1, “HERBICIDAL PYRIDAZINONE DERIVATIVES” (priority 2007, published 2010).
# Key:
# Format in all cases: in vivo
# [1] = test system: barnyardgrass (Echinochloa crus-galli); assay: Test B flooded paddy test plant response
# How it was run: (§1)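 2-leaf plants; pots flooded 3 cm above soil; compound added to paddy water; depth maintained. Greenhouse 13–15 d. Visual rating vs controls, 0 (no effect) to 100 (complete control); dash = no result.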
# [2] = test system: rice (Oryza sativa); assay: Test B flooded paddy test plant response
# How it was run: as §1
# [3] = test system: umbrella sedge (Cyperus difformis); assay: Test B flooded paddy test plant response
# How it was run: as §1
# [4] = test system: ducksalad (Heteranthera limosa); assay: Test B flooded paddy test plant response
# How it was run: as §1
# [5] = test system: winter barley (Hordeum vulgare); assay: Test B postemergence plant response; details: for Barley plant response rating: 8 g ai/ha, postemergence, 0-100 scale; for Plant response rating, Barley: Postemergence, scale 0 to 100, 0 no effect, 100 complete control
# How it was run: (§2)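 Test compounds were applied postemergence to plants 2 to 18 cm tall (1- to 4-leaf stage). After 13 to 15 days in a greenhouse, each species was visually compared with untreated controls and rated 0 (no effect) to 100 (complete control).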
# [6] = test system: canarygrass (Phalaris minor); assay: Test B postemergence plant response; details: for Canarygrass plant response rating: 8 g ai/ha, postemergence, 0-100 scale; for Plant response rating, Canarygrass: Postemergence
# How it was run: as §2
# [7] = test system: windgrass (Apera spica-venti); assay: Test B postemergence plant response; details: for Windgrass plant response rating: 8 g ai/ha, postemergence, 0-100 scale; for Plant response rating, Windgrass: Postemergence
# How it was run: as §2
# [8] = test system: chickweed (Stellaria media); assay: Test B postemergence plant response; details: for Chickweed plant response rating: 8 g ai/ha, postemergence, 0-100 scale; for Plant response rating, Chickweed: Postemergence
# How it was run: as §2
# [9] = test system: corn (Zea mays); assay: Test A pre-/postemergence plant response
# How it was run: (§3)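 Seeds sown in loam–sand blend; test chemicals in non-phytotoxic solvent with surfactant applied preemergence as directed soil spray and, concurrently, postemergence to plants 2–10 cm tall at one- to two-leaf stage. Greenhouse ~10 days, then visual injury rating vs untreated controls on 0–100 scale (0 = no effect, 100 = complete control).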
# [10] = test system: barnyardgrass (Echinochloa crus-galli); assay: Test A pre-/postemergence plant response
# How it was run: as §3
# [11] = test system: pigweed (Amaranthus retroflexus); assay: Test A pre-/postemergence plant response
# How it was run: as §3
# [12] = test system: velvetleaf (Abutilon theophrasti); assay: Test A pre-/postemergence plant response
# How it was run: as §3
# [13] = test system: morningglory (Ipomoea coccinea); assay: Test A pre-/postemergence plant response
# How it was run: as §3
# [14] = test system: large crabgrass (Digitaria sanguinalis); assay: Test A pre-/postemergence plant response
# How it was run: as §3
# [15] = test system: wheat (Triticum aestivum); assay: Test A pre-/postemergence plant response
# How it was run: as §3
# [16] = Flood (flooded paddy test), 62 g ai/ha, scale 0 to 100, 0 no effect, 100 complete control
# [17] = Flood (flooded paddy test), 125 g ai/ha, scale 0 to 100, 0 no effect, 100 complete control
# [18] = Flood (flooded paddy test), 250 g ai/ha, scale 0 to 100, 0 no effect, 100 complete control
# [19] = Flood, 31 g ai/ha, scale 0 to 100
# [20] = 31 g ai/ha, scale 0 to 100, 0 no effect, 100 complete control
# [21] = 62 g ai/ha, scale 0 to 100, 0 no effect, 100 complete control
# [22] = Postemergence, 31 g ai/ha, 0 to 100 scale (0 no effect, 100 complete control)
# [23] = Postemergence, 125 g ai/ha, 0 to 100 scale, 0 no effect, 100 complete control
# [24] = Preemergence, 31 g ai/ha, 0 to 100 scale, 0 is no effect, 100 is complete control
# [25] = Preemergence, 125 g ai/ha, 0 to 100 scale (0 no effect, 100 complete control)
# [26] = Postemergence, 500 g ai/ha, 0 to 100 scale, 0 no effect, 100 complete control
# [27] = Preemergence, 500 g ai/ha, 0 to 100 scale (0 no effect, 100 complete control)
structure (smiles),measurement,setting,value
CCc1cc(-c2ccc(Cl)cc2)nn1-c1c(OS(C)(=O)=O)cnn(C)c1=O [Compound 39],"Plant response rating, Barnyardgrass",[1]; [16],80
same,"Plant response rating, Barnyardgrass",[1]; [17],65
same,"Plant response rating, Barnyardgrass",[1]; [18],85
same,"Plant response rating, Barnyardgrass",[1]; [19],0
same,"Plant response rating, Rice",[2]; [16],0
same,"Plant response rating, Rice",[2]; [17],50
same,"Plant response rating, Rice",[2]; [18],80
same,"Plant response rating, Rice",[2]; [19],0
same,"Plant response rating, Sedge, Umbrella",[3]; [16],0
same,"Plant response rating, Sedge, Umbrella",[3]; [17],0
same,"Plant response rating, Sedge, Umbrella",[3]; [18],85
same,"Plant response rating, Sedge, Umbrella",[3]; [19],0
same,"Plant response rating, Ducksalad",[4]; [16],0
same,"Plant response rating, Ducksalad",[4]; [17],0
same,"Plant response rating, Ducksalad",[4]; [18],80
same,"Plant response rating, Ducksalad",[4]; [19],0
same,Barley plant response rating,[5],0
same,"Plant response rating, Barley",[5]; 16 g ai/ha,5
same,"Plant response rating, Barley",[5]; 31 g ai/ha,40
same,"Plant response rating, Barley",[5]; 62 g ai/ha,70
same,Canarygrass plant response rating,[6],0
same,"Plant response rating, Canarygrass","[6]; 16 g ai/ha, scale 0 to 100",0
same,"Plant response rating, Canarygrass",[6]; [20],40
same,"Plant response rating, Canarygrass",[6]; [21],50
same,Windgrass plant response rating,[7],0
same,"Plant response rating, Windgrass","[7]; 16 g ai/ha, scale 0 to 100",40
same,"Plant response rating, Windgrass",[7]; [21],100
same,Chickweed plant response rating,[8],0
same,"Plant response rating, Chickweed","[8]; 16 g ai/ha, scale 0 to 100",0
same,"Plant response rating, Chickweed",[8]; [20],0
same,"Plant response rating, Chickweed",[8]; [21],0
same,"Plant response rating, Corn",[9]; [22],70
same,"Plant response rating, Corn",[9]; [23],100
same,"Plant response rating, Corn",[9]; [24],30
same,"Plant response rating, Corn",[9]; [25],90
same,"Plant response rating, Barnyardgrass",[10]; [22],100
same,"Plant response rating, Barnyardgrass",[10]; [23],100
same,"Plant response rating, Barnyardgrass",[10]; [24],100
same,"Plant response rating, Barnyardgrass",[10]; [25],100
same,"Plant response rating, Pigweed",[11]; [22],0
same,"Plant response rating, Pigweed",[11]; [23],0
same,"Plant response rating, Pigweed",[11]; [24],0
same,"Plant response rating, Pigweed",[11]; [25],0
same,"Plant response rating, Velvetleaf",[12]; [22],0
same,"Plant response rating, Velvetleaf",[12]; [23],0
same,"Plant response rating, Velvetleaf",[12]; [24],0
same,"Plant response rating, Velvetleaf",[12]; [25],0
same,"Plant response rating, Morningglory",[13]; [22],0
same,"Plant response rating, Morningglory",[13]; [23],0
same,"Plant response rating, Morningglory",[13]; [24],0
same,"Plant response rating, Morningglory",[13]; [25],0
same,"Plant response rating, Crabgrass, Large",[14]; [22],60
same,"Plant response rating, Crabgrass, Large",[14]; [23],100
same,"Plant response rating, Crabgrass, Large",[14]; [24],60
same,"Plant response rating, Crabgrass, Large",[14]; [25],100
same,"Plant response rating, Wheat",[15]; [22],40
same,"Plant response rating, Wheat",[15]; [23],80
same,"Plant response rating, Wheat",[15]; [24],40
same,"Plant response rating, Wheat",[15]; [25],80
Cn1ncc(O)c(-c2nn(-c3ccc(Cl)cc3)cc2Cl)c1=O [Compound 28],"Plant response rating, Barnyardgrass",[1]; [16],0
same,"Plant response rating, Barnyardgrass",[1]; [17],0
same,"Plant response rating, Barnyardgrass",[1]; [18],30
same,"Plant response rating, Barnyardgrass",[1]; [19],0
same,"Plant response rating, Rice",[2]; [16],0
same,"Plant response rating, Rice",[2]; [17],0
same,"Plant response rating, Rice",[2]; [18],60
same,"Plant response rating, Rice",[2]; [19],0
same,"Plant response rating, Sedge, Umbrella",[3]; [16],0
same,"Plant response rating, Sedge, Umbrella",[3]; [17],0
same,"Plant response rating, Sedge, Umbrella",[3]; [18],0
same,"Plant response rating, Sedge, Umbrella",[3]; [19],0
same,"Plant response rating, Ducksalad",[4]; [16],0
same,"Plant response rating, Ducksalad",[4]; [17],0
same,"Plant response rating, Ducksalad",[4]; [18],0
same,"Plant response rating, Ducksalad",[4]; [19],0
same,Barley plant response rating,[5],0
same,"Plant response rating, Barley",[5]; 16 g ai/ha,0
same,"Plant response rating, Barley",[5]; 31 g ai/ha,50
same,Canarygrass plant response rating,[6],0
same,"Plant response rating, Canarygrass","[6]; 16 g ai/ha, scale 0 to 100",0
same,"Plant response rating, Canarygrass",[6]; [20],50
same,Windgrass plant response rating,[7],0
same,"Plant response rating, Windgrass","[7]; 16 g ai/ha, scale 0 to 100",35
same,"Plant response rating, Windgrass",[7]; [21],85
same,Chickweed plant response rating,[8],0
same,"Plant response rating, Chickweed","[8]; 16 g ai/ha, scale 0 to 100",0
same,"Plant response rating, Chickweed",[8]; [20],0
same,"Plant response rating, Chickweed",[8]; [21],0
same,"Plant response rating, Corn",[9]; [23],40
same,"Plant response rating, Corn",[9]; [26],90
same,"Plant response rating, Corn",[9]; [25],80
same,"Plant response rating, Corn",[9]; [27],90
same,"Plant response rating, Barnyardgrass",[10]; [23],60
same,"Plant response rating, Barnyardgrass",[10]; [26],100
same,"Plant response rating, Barnyardgrass",[10]; [25],100
same,"Plant response rating, Barnyardgrass",[10]; [27],100
same,"Plant response rating, Pigweed",[11]; [23],0
same,"Plant response rating, Pigweed",[11]; [26],0
same,"Plant response rating, Pigweed",[11]; [25],0
same,"Plant response rating, Pigweed",[11]; [27],0
same,"Plant response rating, Velvetleaf",[12]; [23],0
same,"Plant response rating, Velvetleaf",[12]; [26],0
same,"Plant response rating, Velvetleaf",[12]; [25],0
same,"Plant response rating, Velvetleaf",[12]; [27],20
same,"Plant response rating, Morningglory",[13]; [23],0
same,"Plant response rating, Morningglory",[13]; [26],30
same,"Plant response rating, Morningglory",[13]; [27],0
same,"Plant response rating, Crabgrass, Large",[14]; [23],80
same,"Plant response rating, Crabgrass, Large",[14]; [26],90
same,"Plant response rating, Crabgrass, Large",[14]; [25],90
same,"Plant response rating, Crabgrass, Large",[14]; [27],100
same,"Plant response rating, Wheat",[15]; [23],50
same,"Plant response rating, Wheat",[15]; [26],70
same,"Plant response rating, Wheat",[15]; [25],70
same,"Plant response rating, Wheat",[15]; [27],100
